Measurements taken from BindingDB's records for doi:10.1021/jm8000949 (China Pharmaceutical University, 2008).

target: T1, Glycogen phosphorylase, muscle form (Oryctolagus cuniculus, UniProt P00489); test: Enzyme Inhibition Assay; settings: pH 7.2; 22 °C
T1 sequence (P00489 whole entry): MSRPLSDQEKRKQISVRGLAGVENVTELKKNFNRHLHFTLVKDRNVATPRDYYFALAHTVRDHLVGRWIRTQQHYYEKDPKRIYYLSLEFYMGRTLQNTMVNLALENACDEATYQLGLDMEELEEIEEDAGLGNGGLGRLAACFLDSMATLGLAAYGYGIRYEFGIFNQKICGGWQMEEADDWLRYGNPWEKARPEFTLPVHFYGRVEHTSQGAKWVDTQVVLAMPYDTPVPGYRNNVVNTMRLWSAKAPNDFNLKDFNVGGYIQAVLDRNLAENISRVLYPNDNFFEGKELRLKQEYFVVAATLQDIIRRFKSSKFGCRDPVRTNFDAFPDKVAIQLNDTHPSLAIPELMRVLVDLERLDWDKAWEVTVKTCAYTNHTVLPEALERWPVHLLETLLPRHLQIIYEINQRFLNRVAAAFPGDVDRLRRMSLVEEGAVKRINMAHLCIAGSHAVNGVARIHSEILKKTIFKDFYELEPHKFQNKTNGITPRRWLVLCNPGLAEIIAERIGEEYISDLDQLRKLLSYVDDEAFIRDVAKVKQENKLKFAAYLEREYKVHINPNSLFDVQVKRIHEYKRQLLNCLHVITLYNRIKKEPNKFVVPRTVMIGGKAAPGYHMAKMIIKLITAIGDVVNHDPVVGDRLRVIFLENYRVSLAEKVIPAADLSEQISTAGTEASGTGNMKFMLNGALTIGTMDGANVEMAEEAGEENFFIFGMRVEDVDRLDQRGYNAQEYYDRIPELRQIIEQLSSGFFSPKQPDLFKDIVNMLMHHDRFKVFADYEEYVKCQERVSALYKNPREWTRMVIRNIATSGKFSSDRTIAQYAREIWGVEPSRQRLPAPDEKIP
Procedure: The activity of the compounds is determined by measuring the inhibitory effect of the compounds in the direction of glycogen synthesis, the conversion of glucose-1-phosphate into glycogen with the release of inorganic phosphate, which was monitored using microplate reader (BIO-RAD). […] The IC50 values were estimated by fitting the inhibition data to a dose dependent curve using a logistic derivative equation.

IC50 | Compound
19 µM | C[C@H]1[C@H](C)CC[C@]2(C(=O)O)CC[C@]3(C)C(=CC[C@@H]4[C@@]5(C)CC[C@@H](O)C(C)(C)C5CC[C@]43C)[C@H]12 (stereo partly drawn) [(1S,2R,4aS,6aS,6bR,10R,12aR,12bR,14bS)-10-hydroxy-1,2,6a,6b,9,9,12a-heptamethyl-1,2,3,4,4a,5,6,6a,6b,7,8,8a,9,10,11,12,12a,12b,13,14b-icosahydropicene-4a-carboxylic acid]
293 µM | CC1(C)CC[C@]2(C(=O)O[C@@H]3O[C@H](CO)[C@@H](O)[C@H](O)[C@H]3O)CC[C@]3(C)C(=CC[C@@H]4[C@@]5(C)CC[C@H](O)C(C)(C)C5CC[C@]43C)[C@@H]2C1 (stereo partly drawn) [(2S,3R,4S,5S,6R)-3,4,5-trihydroxy-6-(hydroxymethyl)oxan-2-yl (4aS,6aS,6bR,10S,12aR,12bR,14bS)-10-hydroxy-2,2,6a,6b,9,9,12a-heptamethyl-1,2,3,4,4a,5,6,6a,6b,7,8,8a,9,10,11,12,12a,12b,13,14b-icosahydropicene-4a-carboxylate]
18 µM | CC1(C)CC[C@]2(C(=O)O)CC[C@]3(C)C(=CC[C@@H]4[C@@]5(C)CCC(=O)C(C)(C)C5CC[C@]43C)[C@@H]2C1 (stereo not given in full) [pentacyclic triterpene compound 6]
106 µM | C[C@H]1[C@H](C)CC[C@]2(C(=O)O[C@@H]3O[C@H](CO)[C@@H](O)[C@H](O)[C@H]3O)CC[C@]3(C)C(=CC[C@@H]4[C@@]5(C)C[C@@H](O)[C@H](O)C(C)(C)C5CC[C@]43C)[C@H]12 (stereo partly drawn) [(2S,3R,4S,5S,6R)-3,4,5-trihydroxy-6-(hydroxymethyl)oxan-2-yl (1S,2R,4aS,6aS,6bR,10R,11R,12aR,12bR,14bS)-10,11-dihydroxy-1,2,6a,6b,9,9,12a-heptamethyl-1,2,3,4,4a,5,6,6a,6b,7,8,8a,9,10,11,12,12a,12b,13,14b-icosahydropicene-4a-carboxylate]
97 µM | C[C@H]1[C@H](C)CC[C@]2(C(=O)O[C@@H]3O[C@H](CO)[C@@H](O)[C@H](O)[C@H]3O)CC[C@]3(C)C(=CC[C@@H]4[C@@]5(C)CC[C@H](O)C(C)(C)C5CC[C@]43C)[C@H]12 (stereo not given in full) [pentacyclic triterpene compound 19]
66 µM | CC1(C)C2CC[C@]3(C)[C@H](C(=O)C=C4[C@@H]5C[C@@](C)(C(=O)O)CC[C@]5(C)CC[C@]43C)[C@@]2(C)CC[C@@H]1O (stereo partly drawn) [(2S,4aS,6aS,6bR,10S,12aS,12bR,14bR)-10-hydroxy-2,4a,6a,6b,9,9,12a-heptamethyl-13-oxo-1,2,3,4,4a,5,6,6a,6b,7,8,8a,9,10,11,12,12a,12b,13,14b-icosahydropicene-2-carboxylic acid]
9 µM | C[C@H]1[C@H](C)CC[C@]2(C(=O)O)CC[C@]3(C)C(=CC[C@@H]4[C@@]5(C)CC[C@H](O)C(C)(C)C5CC[C@]43C)[C@H]12 (stereo partly drawn) [(1S,2R,4aS,6aS,6bR,10S,12aR,12bR,14bS)-10-hydroxy-1,2,6a,6b,9,9,12a-heptamethyl-1,2,3,4,4a,5,6,6a,6b,7,8,8a,9,10,11,12,12a,12b,13,14b-icosahydropicene-4a-carboxylic acid]
57 µM | C[C@H]1[C@H](C)CC[C@]2(C(=O)O)CC[C@]3(C)C(=CC[C@@H]4[C@@]5(C)CCC(=O)C(C)(C)C5CC[C@]43C)[C@H]12 (stereo partly drawn) [(1S,2R,4aS,6aS,6bR,12aR,12bR,14bS)-1,2,6a,6b,9,9,12a-heptamethyl-10-oxo-1,2,3,4,4a,5,6,6a,6b,7,8,8a,9,10,11,12,12a,12b,13,14b-icosahydropicene-4a-carboxylic acid]
822 µM | CC1(C)C2CC[C@]3(C)[C@H](C(=O)C=C4[C@@H]5C[C@@](C)(C(=O)O)CC[C@]5(C)CC[C@]43C)[C@@]2(C)CC[C@@H]1O[C@H]1O[C@H](C(=O)O)[C@@H](O)[C@H](O)[C@H]1O[C@@H]1O[C@H](C(=O)O)[C@@H](O)[C@H](O)[C@H]1O (stereo not given in full) [pentacyclic triterpene compound 7]

Compound | IC50
CC1(C)C2CC[C@]3(C)[C@H](CC=C4[C@@H]5C[C@@](C)(C(=O)O)CC[C@]5(C)CC[C@]43C)[C@@]2(C)CC[C@@H]1O (stereo partly drawn) [(2S,4aS,6aS,6bR,10S,12aR,12bR,14bR)-10-hydroxy-2,4a,6a,6b,9,9,12a-heptamethyl-1,2,3,4,4a,5,6,6a,6b,7,8,8a,9,10,11,12,12a,12b,13,14b-icosahydropicene-2-carboxylic acid] | 82 µM
